Activity calls are given as the source filed them. The rule behind the calls is not given here.
Key:
Mus musculus [1] = assay: Anticonvulsant activity in albino CF1 mouse assessed as protection against maximal electroshock-induced seizures at 100 mg/kg, ip measured after 0.25 hr; type: functional, organism-based; design: dose 100 mg/kg
Mus musculus [2] = assay: Anticonvulsant activity in albino CF1 mouse assessed as protection against maximal electroshock-induced seizures at 100 mg/kg, ip measured after 1 hr; type: functional, organism-based; design: dose 100 mg/kg
Mus musculus [3] = assay: Anticonvulsant activity in albino CF1 mouse assessed as protection against maximal electroshock-induced seizures at 100 mg/kg, ip measured after 4 hrs; type: functional, organism-based; design: dose 100 mg/kg
Mus musculus [4] = assay: Neurotoxicity in albino CF1 mouse at 100 mg/kg, ip measured after 4 hrs; type: toxicity, organism-based; design: dose 100 mg/kg, route intraperitoneal; settings: in vivo
Mus musculus [5] = assay: Anticonvulsant activity in albino CF1 mouse assessed as protection against 32 mA current-induced seizures at 100 mg/kg, ip measured after 0.25 hr; type: functional, organism-based; design: dose 100 mg/kg
Mus musculus [6] = assay: Anticonvulsant activity in albino CF1 mouse assessed as protection against 32 mA current-induced seizures at 100 mg/kg, ip measured after 1 hr; type: functional, organism-based; design: dose 100 mg/kg
Mus musculus [7] = assay: Neurotoxicity in 32 mA current-induced seizure albino CF1 mouse model at 100 mg/kg, ip measured after 0.25 hr; type: toxicity, organism-based; design: dose 100 mg/kg, route intraperitoneal; settings: in vivo
Mus musculus [8] = assay: Neurotoxicity in 32 mA current-induced seizure albino CF1 mouse model at 100 mg/kg, ip measured after 1 hr; type: toxicity, organism-based; design: dose 100 mg/kg, route intraperitoneal; settings: in vivo
Mus musculus [9] = assay: Neurotoxicity in 32 mA current-induced seizure albino CF1 mouse model at 100 mg/kg, ip measured after 2 hrs; type: toxicity, organism-based; design: dose 100 mg/kg, route intraperitoneal; settings: in vivo
Mus musculus [10] = assay: Anticonvulsant activity in albino CF1 mouse assessed as protection against 44 mA current-induced seizures at 100 mg/kg, ip measured after 0.25 hr; type: functional, organism-based; design: dose 100 mg/kg
Mus musculus [11] = assay: Anticonvulsant activity in albino CF1 mouse assessed as protection against 44 mA current-induced seizures at 100 mg/kg, ip measured after 2 hrs; type: functional, organism-based; design: dose 100 mg/kg
Mus musculus [12] = assay: Anticonvulsant activity in albino CF1 mouse assessed as protection against 44 mA current-induced seizures at 100 mg/kg, ip measured after 4 hrs; type: functional, organism-based; design: dose 100 mg/kg
Mus musculus [13] = assay: Neurotoxicity in 44 mA current-induced seizure albino CF1 mouse model at 100 mg/kg, ip measured after 4 hrs; type: toxicity, organism-based; design: dose 100 mg/kg, route intraperitoneal; settings: in vivo
Rattus norvegicus [14] = assay: Anticonvulsant activity in Sprague-Dawley rat assessed as protection against maximal electroshock-induced seizures at 30 mg/kg, po measured after 0.25 hr; type: functional, organism-based; design: dose 30 mg/kg
Rattus norvegicus [15] = assay: Neurotoxicity in MES Sprague-Dawley rat model at 30 mg/kg, po measured after 0.25 hr; type: toxicity, organism-based; design: dose 30 mg/kg, route oral; settings: in vivo
Rattus norvegicus [16] = assay: Neurotoxicity in MES Sprague-Dawley rat model at 30 mg/kg, po measured after 0.5 hr; type: toxicity, organism-based; design: dose 30 mg/kg, route oral; settings: in vivo
Rattus norvegicus [17] = assay: Neurotoxicity in MES Sprague-Dawley rat model at 30 mg/kg, po measured after 1 hr; type: toxicity, organism-based; design: dose 30 mg/kg, route oral; settings: in vivo
Rattus norvegicus [18] = assay: Neurotoxicity in MES Sprague-Dawley rat model at 30 mg/kg, po measured after 4 hrs; type: toxicity, organism-based; design: dose 30 mg/kg, route oral; settings: in vivo
Rattus norvegicus [19] = assay: Anticonvulsant activity in Sprague-Dawley rat assessed as protection against maximal electroshock-induced seizures at 30 mg/kg, ip measured after 0.25 hr; type: functional, organism-based; design: dose 30 mg/kg
Rattus norvegicus [20] = assay: Anticonvulsant activity in Sprague-Dawley rat assessed as protection against maximal electroshock-induced seizures at 30 mg/kg, ip measured after 1 hr; type: functional, organism-based; design: dose 30 mg/kg
Rattus norvegicus [21] = assay: Anticonvulsant activity in Sprague-Dawley rat assessed as protection against maximal electroshock-induced seizures at 30 mg/kg, ip measured after 2 hrs; type: functional, organism-based; design: dose 30 mg/kg
Rattus norvegicus [22] = assay: Neurotoxicity in MES Sprague-Dawley rat model at 30 mg/kg, ip measured after 2 hrs; type: toxicity, organism-based; design: dose 30 mg/kg, route intraperitoneal; settings: in vivo
[23] = Neurotoxicity in ip dosed albino CF1 mouse; type: toxicity, organism-based; settings: in vivo
Rattus norvegicus [24] = assay: Anticonvulsant activity in ip dosed Sprague-Dawley rat assessed as protection against maximal electroshock-induced seizures; type: functional
[25] = Neurotoxicity in ip dosed Sprague-Dawley rat; type: toxicity, organism-based; settings: in vivo
Mus musculus [26] = assay: Anticonvulsant activity in ip dosed albino CF1 mouse assessed as protection against 32 mA current-induced seizures; type: functional
Mus musculus [27] = assay: Anticonvulsant activity in ip dosed albino CF1 mouse assessed as protection against 44 mA current-induced seizures; type: functional
Mus musculus [28] = assay: Anticonvulsant activity in ip dosed albino CF1 mouse assessed as protection against 6 Hz current-induced seizures measured as time to peak effect; type: functional
Rattus norvegicus [29] = assay: Anticonvulsant activity in ip dosed hippocampal kindled albino Sprague-Dawley rat seizure model; type: functional; settings: Hippocampus
Mus musculus [30] = assay: Anticonvulsant activity in albino CF1 mouse assessed as protection against iv infusion metrazol-induced seizures measured as time to clonus at 79 mg/kg, ip (reference value: 29.4 seconds); type: functional
Mus musculus [31] = assay: Anticonvulsant activity in albino CF1 mouse assessed as protection against iv infusion metrazol-induced seizures measured as clonus at 24 mg/kg, ip (reference value: 31.1 mg/kg); type: functional

O=C1NC(=O)[C@@H]2CCCN2[C@H]1c1cccc(OC(F)(F)F)c1
Activity (Mus musculus [1]): Active
Activity (Mus musculus [2]): Active
Activity (Mus musculus [3]): inactive
Activity (Mus musculus [4]): Non-toxic
Activity (Mus musculus [5]): Active
Activity (Mus musculus [6]): Active
Activity (Mus musculus [7]): Toxic
Activity (Mus musculus [8]): Non-toxic
Activity (Mus musculus [9]): Non-toxic
Activity (Mus musculus [10]): Active
Activity (Mus musculus [11]): inactive
Activity (Mus musculus [12]): inactive
Activity (Mus musculus [13]): Non-toxic
Activity (Rattus norvegicus [14]): inactive
Activity (Rattus norvegicus [15]): Non-toxic
Activity (Rattus norvegicus [16]): Non-toxic
Activity (Rattus norvegicus [17]): Non-toxic
Activity (Rattus norvegicus [18]): Non-toxic
Activity (Rattus norvegicus [19]): Active
Activity (Rattus norvegicus [20]): Active
Activity (Rattus norvegicus [21]): inactive
Activity (Rattus norvegicus [22]): Non-toxic
TD50 [23]: 252 µmol/kg
ED50 (Rattus norvegicus [24]): 40 µmol/kg
TD50 [25]: 114 µmol/kg
ED50 (Mus musculus [26]): 176 µmol/kg
ED50 (Mus musculus [27]): 171 µmol/kg
Time (Mus musculus [28]): 0.25 h
ED50 (Rattus norvegicus [29]): 48 µmol/kg
Time (Mus musculus [30]): 94.6 s
Activity (Mus musculus [31]): 41.7 mg/kg

— ChEMBL document CHEMBL3352057, “Novel fluorinated pyrrolo[1,2-a]pyrazine-2,6-dione derivatives: synthesis and anticonvulsant evaluation in animal models of epilepsy” (Bioorg Med Chem, 2014)
